Reference: patent US20240050402A1, “ANETHOLE TRITHIONE ADMINISTRATION REGIMEN FOR THE PREVENTION OR TREATMENT OF ISCHEMIA-REPERFUSION INJURIES” (priority 2020, published 2024)
Where two headings read alike, the source gives them in different places.

How the values were obtained:
[1] = Two-step infusion after bolus, AOL plasma concentration in human; type: in vivo; conditions: 2-step infusion 6 then 3 μg/kg/h (3 h + 9 h), lower and higher bolus doses
Description: In that respect, the management of the immediate post-initiation period has been evaluated using a 2-step infusion approach, i.e., starting with a higher dose (6 jig/kg/h) in the first 3 hours of infusion, and then stepping down to a lower dose (3 jig/kg/h) for the remaining time (in this example, 9 hours, for a total infusion period of 12 hours).
The same 2-step infusion regimen was tested with 2 different bolus doses.

[2] = tested on: myocardial ischemia-reperfusion, left coronary artery occlusion; test: In vivo ischemia-reperfusion model in rat (30 min left coronary artery occlusion, 3 h reperfusion); conditions: for reduction of the size of the myocardial infarction / reduction of the size of the no-reflow zone: versus control; for Area of necrosis/Area at risk (%) / Area of no-reflow/Area at risk (%): mean±SEM
Description: 64 female Sprague Dawley rats (— 6 months old) were anesthetized with intraperitoneal ketamine (90 mg/kg) and xylazine (10 mg/kg). Only female rats were used in this study as it was previously reported that gender had no effect on the extent of myocardial injury in the setting of experimental myocardial infarction in rats (Li & Kloner, 1995. J Thromb Thrombolysis. 2(3):221-225); and that lethal reperfusion-induced arrhythmias led to a higher mortality in male rats versus female rats (Dow et al., 2015. Springerplus. 4:96).
The animals were intubated and mechanically ventilated with room air at respiratory rate of 60 cycles/minute and tidal volume of 1 mL per 100 g body weight (Harvard Apparatus Rodent Ventilator, Model 683, South Natick, Mass). A water circulating heating pad was used to keep the rat body temperature at around 37° C. Their neck surgical area was shaved and cleaned, and catheters were inserted into the jugular vein (for drug delivery) and carotid artery (for arterial waveform monitoring) via cut downs. Under clean conditions, the chest cavity was opened through an incision in the left 4th intercostal space to expose the heart. The pericardium was gently removed to expose the anterior surface of the left ventricle. A 4-0 silk suture was placed under the proximal portion of the left coronary artery as it runs through the interventricular groove just under the tip of the left atrial appendage. The end of the suture was threaded through a small plastic tube to make a snare for coronary artery occlusion. At the time of occlusion, the artery was pulled through the plastic tube and the tube was clamped. Coronary artery reperfusion occurred by releasing the clamp and watching the surface of the heart for reactive hyperemia. The left coronary artery was occluded for 30 minutes followed by 3 hours of reperfusion.
Rats were randomized into one of the 3 groups: • preventive group (n=22): AOL infusion starting 5 minutes before coronary artery occlusion; • curative group (n=20): AOL infusion starting 5 minutes prior to reperfusion; • control group (n=22): vehicle infusion starting 5 minutes before coronary artery occlusion.
The investigators were blinded to the animal randomization. Infusions in all groups were continuous throughout the end of the study (h+3 after reperfusion). In treated rats, the dose of AOL was 0.2 mg/kg/hour delivered in saline at a rate of infusion of 2 mL/kg/hour.
By the end of the 3-hour reperfusion, a solution of thioflavin S was injected into the jugular vein during the last one minute of reperfusion to assess the distribution of the no-reflow phenomenon (also known as “zone of microvascular obstruction”). Thioflavin S is a dye that appears fluorescent in areas receiving perfusion, when heart slices are visualized under UV light; while the no-reflow area, that lacks perfusion, appears dark (non-fluorescent). At the end of the period of reperfusion after thioflavin S injection, the proximal coronary artery was briefly re-occluded and blue dye (Super imperse blue) was injected into the jugular vein.
At the end of this step, the animal was euthanized under deep anesthesia with ketamine/xylazine by intravascular injection of KCl (149 mg/mL) at 0.5 mL/250 g body weight in order to stop the heart in a relative diastolic or relaxed state. The heart was excised and was gently washed in clear saline, and then transected into 4 transverse slices from apex to base.
The heart slices were photographed under white light in order to delineate the ischemic risk zone (pink) versus the non-ischemic regions (blue) that received the blue dye. The heart slices were then photographed under UV light in order to delineate the areas of perfusion by thioflavin S (fluorescent areas) versus the no-reflow zones (non-fluorescent).
Finally, hearts were incubated in 1% of triphenyl tetrazolium chloride (TTC), a chemical that stains viable cells brick red, while dead or necrotic cells appear white. […]

[3] = tested on: myocardial ischemic-reperfusion, LAD coronary artery occlusion; test: In vivo ischemia-reperfusion model in sheep (balloon catheter LAD occlusion); conditions: ST-segment elevation, troponin Ic, CPK, infarct size, ejection fraction; level when occluding balloon deflated
Description: (§1) Here, we investigated the effect of AOL in an in vivo ischemic-reperfusion model in sheep, by administering AOL prior to reperfusion to assess the cardioprotective potential of AOL. Several parameters were evaluated: • the infarct size, determined at the end of the experiment (day 3), and assessed by two independent pathologists; • the plasmatic exposure, evaluated by dosing plasma samples collected at regular intervals after administration of AOL by mass spectrometry; • ECG parameters; and • heart contractility, assessed through the measurement of the ejection fraction.
The efficacy of AOL was evaluated by comparing these parameters in vehicle- and AOL-treated groups using the sheep model.
Sheep underwent a myocardial ischemic-reperfusion, while either receiving AOL or the vehicle as a control. The animals underwent a three-day follow-up period and were euthanized on day 3.
Myocardial ischemic followed by reperfusion was induced by using the balloon catheter procedure, which consists in occluding the distal left anterior descending (LAD) coronary artery by inflating/deflating a balloon. This particular procedure allowed to have infarction sizes highly reproducible and to occlude only temporally the coronary artery.
AOL or vehicle were administered as a bolus intravenous (IV) injection 10 minutes prior to reperfusion. […]

[4] = Clinical pharmacokinetics study in healthy volunteers, IV bolus + 1-step infusion; type: in vivo, human; conditions: for Cmax / concentration at 12 hours: both sexes, human, plasma; for Cmax: intravenous, read-out: AOL plasma concentration Cmax; for concentration at 12 hours: iv, read-out: AOL plasma concentration End of 12-hour infusion (IV)
Description: The concentration of AOL in the subject's plasma can be measured by means and methods well known to the skilled artisan, such as liquid chromatography-mass spectrometry (LC/MS) or any other suitable means or method. For example, a blood sample from the subject can be centrifuged—preferably within 30 minutes after blood sampling—at about 1 500 g for 10 minutes at 2-8° C. to obtain plasma—the skilled artisan is familiar with method of obtaining plasma from a blood sample, and can readily adapt the centrifugal force, time, temperature and any other parameter according to their routine practice. Immediately after centrifugation, the plasma sample can be analyzed to assess the concentration of AOL by liquid chromatography-mass spectrometry (LC/MS).
A single site, randomized, placebo-controlled, open-label and single blind, ascending dose, cross-over study primarily aiming at evaluating the pharmacokinetics, safety and tolerability of AOL administered intravenously in healthy volunteers versus a marketed formulation of AOL (Sulfarlem 525 ®) administered orally was carried out at QPS Netherlands B.V. (Groningen, The Netherlands). Twelve healthy male and female subjects aged between 18 and 65 years old were included in this study.
During this clinical pharmacokinetics study, several dosage regimens have been tested to assess the safety of AOL and to better characterized its pharmacokinetics profile, when administered by IV route (Table 2).

[5] = Plasma exposure of AOL metabolite in sheep after bolus/infusion; type: in vivo; conditions: limit of quantification
Description: as §1
AOL or vehicle were administered as a bolus intravenous (IV) injection 10 minutes prior to reperfusion. This bolus injection was expected to ensure an effective AOL plasma exposure on reperfusion and was immediately followed by a continuous IV infusion starting at the beginning of the reperfusion, for a total duration of administration (bolus+infusion) of 130 minutes.
This starkly contrasted with the metabolization profile that we had observed in sheep (Example 2), where AOX remained below the limit of quantification (0.5 ng/mL) after bolus/infusion, despite similar or even higher doses (FIGS. 9B & 9C).

[6] = curative (shortly before reperfusion)
[7] = curative group: AOL 0.2 mg/kg/hour infusion starting 5 minutes prior to reperfusion
[8] = preventive (prior to coronary artery occlusion)
[9] = preventive group: AOL 0.2 mg/kg/hour infusion starting 5 minutes before coronary artery occlusion
[10] = bolus 0.3 μg/kg, infusion 0.4 μg/kg/hr for 12 hours
[11] = bolus 0.9 μg/kg, infusion 1.7 μg/kg/hr for 12 hours
[12] = bolus 1.8 μg/kg, infusion 3 μg/kg/hr for 12 hours
[13] = bolus 4 μg/kg, infusion 6 μg/kg/hr for 12 hours

Q: For COc1ccc(-c2cc(=S)ss2)cc1 [AOL, 5-(4-methoxyphenyl)dithiole-3-thione], which “trough of AOL plasma concentration after the bolus” value [1] is on record?
A: The value was “abolished the trough”.

Q: And the “effect on hemodynamics (heart rate, arterial blood pressure)” value ([2]; baseline, end of occlusion, end of 3 hours reperfusion)?
A: Its value is “without effect on hemodynamics”.

Q: What about the “reduction of the size of the myocardial infarction” value [2, 6] of the same molecule?
A: The value was 11%.

Q: And the “reduction of the size of the no-reflow zone” value [2, 6]?
A: The value was 23%.

Q: And the “Area of necrosis/Area at risk (%)” value [2, 7]?
A: The value was 50.8 ± 3.9^ %.

Q: What about the “Area of no-reflow/Area at risk (%)” value [2, 7] of the same molecule?
A: Its value is 30.1 ± 2.3 %.

Q: And the “reduction of the size of the myocardial infarction” value [2, 8]?
A: Its value is 22%.

Q: What about the “reduction of the size of the no-reflow zone” value [2, 8] of the same molecule?
A: Its value is 26%.

Q: And the “Area of necrosis/Area at risk (%)” value [2, 9]?
A: The value was 44.5 ± 2.9^& %.

Q: And the “Area of no-reflow/Area at risk (%)” value [2, 9]?
A: Its value is 28.8 ± 2.4 %.

Q: What about the “AOL plasma level at reperfusion at which positive impact compared to vehicle was observed” value [3] of the same molecule?
A: The value was > 1 ng per mL of plasma.

Q: And the “slope of linear regression, plasma concentration at Cmax (Y) versus bolus dose (X)” value ([4]; Y=slope×X, FIG. 8A)?
A: The value was 1.046.

Q: What about the “slope of linear regression, plasma concentration at end of infusion (Y) versus infusion dose (X)” value ([4]; Y=slope×X, FIG. 8B) of the same molecule?
A: The value was 0.5723.

Q: What about the “time at which steady state was reached” value ([4]; all dosage regimens tested) of the same molecule?
A: Its value is “around 3 hours”.

Q: What about the “AOL plasma concentration Valley” value [4, 10] of the same molecule?
A: The value was ~0.08 ng/mL.

Q: What about the “AOL plasma concentration Valley” value [4, 11] of the same molecule?
A: The value was ~0.37 ng/mL.

Q: And the “AOL plasma concentration Valley” value [4, 12]?
A: Its value is ~0.72 ng/mL.

Q: And the “AOL plasma concentration Valley” value [4, 13]?
A: The value was ~2.67 ng/mL.

Q: And the Cmax [4, 10]?
A: The Cmax was 0.29 ng/mL.

Q: And the Cmax [4, 11]?
A: The Cmax was 1.04 ng/mL.

Q: And the Cmax [4, 12]?
A: Its Cmax is 1.94 ng/mL.

Q: What about the Cmax [4, 13] of the same molecule?
A: Its Cmax is 4.14 ng/mL.

Q: What about the concentration at 12 hours [4, 10] of the same molecule?
A: The concentration at 12 hours was ~0.1 ng/mL.

Q: What about the concentration at 12 hours [4, 11] of the same molecule?
A: Its concentration at 12 hours is ~0.8 ng/mL.

Q: What about the concentration at 12 hours [4, 12] of the same molecule?
A: The concentration at 12 hours was ~1.7 ng/mL.

Q: And the concentration at 12 hours [4, 13]?
A: The concentration at 12 hours was ~3.5 ng/mL.

Q: What about the “metabolization of AOL into AOX” value ([4]; human subjects, FIG. 9A) of the same molecule?
A: The value was “rapidly metabolized into AOX”.

Q: Which AOX plasma concentration [5] does the source give for Oc1ccc(-c2cc(=S)ss2)cc1 [AOX, desmethylanethole trithione] here?
A: Its AOX plasma concentration is < 0.5 ng/mL.

Q: And the “appearance of AOX in plasma after start of AOL administration” value ([4]; human subjects, FIG. 9A)?
A: Its value is “quickly appeared in the plasma”.
